Laboratory results: patent publication US20070065485A1, “Therapeutic delivery of carbon monoxide” (priority 2003, published 2007)
Like-named read-outs stand apart in the source and are kept apart here.

Columns and labels:
[1] = system: aortic rings pre-contracted with phenylephrine; test: Isolated aortic ring preparation: relaxation response to CORM-A1 in presence or absence of YC-1, phenylephrine 1 μmol/L; type: cell-based, male Lewis rats
Procedure: Transverse ring sections of thoracic aorta were isolated from male Lewis rats and suspended under a 2 g tension in an organ bath containing oxygenated Krebs-Henseleit buffer at 37° C. in a manner previously described. […] YC-1 was added to the isolated rings 30 min prior to contraction with phenylephrine.

[2] = system: mean arterial pressure (MAP); test: Effect of CORM-A1 and YC-1 on mean arterial pressure (MAP) in anaesthetised rats; type: in vivo, Lewis rats
Procedure: Lewis rats (280-350 g) were anaesthetised by intramuscular injection of 1 ml/kg Hypnorm. Specially designed femoral artery and venous catheters were then surgically implanted and mean arterial pressure (MAP) monitored continuously using a polygraph recorder in a manner previously described. The effect of CORM-A1 on mean arterial pressure (MAP) over time was assessed following an intravenous (i.v.) injection of 50 μmol kg^−1. Similar experiments were conducted by administering YC-1 (1.2 μmol kg^−1, i.v.) to animals 5 min prior to the bolus addition of CORM-A1. Control experiments using YC-1 alone were also performed.
Femoral artery and venous catheters were surgically implanted into anesthetized Lewis rats and blood pressure continuously monitored as previously described by us. The effect of CORM-A1 and YC-1 on mean arterial pressure (MAP) in vivo is represented in FIG. 11. The compounds were injected intravenously as a bolus at a final concentration of 50 μmoles/kg for CORM-A1 and 1.2 μmol kg^−1 for YC-1. When the two compounds were given in combination, YC-1 was administered 10 min prior to CORM-A1 injection. As shown, CORM-A1 produced a gradual and sustained decrease in MAP over time; for instance, 60 min after CORM-A1 injection MAP decreased by 6.3±1.5 mmHg from the initial baseline value. Injection with YC-1 alone also produced an effect on blood pressure; however, the decrease in MAP was only transient, reaching a maximum of 5.5±1.0 mmHg after 10 min and returning to basal levels 50 min after injection. […] The data are represented as the mean±s.e.m. of 5 independent experiments for each group. *P<0.05 vs. baseline (−10 min); ^⇑P<0.05 vs. CORM-A1 alone or YC-1 alone.

deoxymyoglobin (Mb) [3] = conditions: cited from earlier work
[4] = system: aortic rings pre-contracted with phenylephrine; test: Isolated aortic ring preparation: vessel relaxation in rings pre-contracted with phenylephrine (3 μM); type: cell-based, male Lewis rats; conditions: for percentage of relaxation compared to control: after 10 min
Procedure: Transverse ring sections of thoracic aorta were isolated from male Lewis rats and suspended under a 2 g tension in an organ bath containing oxygenated Krebs-Henseleit buffer at 37° C. in a manner previously described^10. The relaxation response to CORM-A1 (40, 80 and 160 μM) was assessed in aortic rings pre-contracted with phenylephrine (3 μM). […] Experiments were also conducted by comparing the effect of CORM-A1 and CORM-3 on vessel relaxation over time.

deoxymyoglobin (Mb) [5] = test: Detection of CO release: conversion of deoxymyoglobin (Mb) to carbonmonoxy myoglobin (MbCO); type: physicochemical
Procedure: The release of CO from CORM-A1 was assessed spectrophotometrically by measuring the conversion of deoxymyoglobin (Mb) to carbonmonoxy myoglobin (MbCO) by a method previously described^23. The amount of MbCO formed was quantified by measuring the absorbance at 540 nm (extinction coefficient=[…]) over time at 37° C. Myoglobin solutions (approximately 50 μmol/L final concentration) were prepared fresh by dissolving the protein in 0.04 M phosphate buffer (pH=7.4). Sodium dithionite (0.1%) was added to convert the oxidized myoglobin to its reduced form prior to each reading. Some experiments were also conducted using Mb at pH=5.5 or at room temperature (RT) in order to examine the kinetic of CO release from CORM-A1 under different chemical and physical conditions.
The amount of MbCO formed after addition of CORM-A1 to the Mb solution can be quantified by measuring the absorbance at 540 nm knowing the extinction coefficient for MbCO (ε=[…]). CORM-A1 at three different concentrations was added to a solution containing Mb at room temperature and the formed MbCO was calculated over time.

[6] = distilled water at basic pH; cited from earlier work

## OCc1ccc(-c2nn(Cc3ccccc3)c3ccccc23)o1 [YC-1, 3-(5′-hydroxymethyl-2′-furyl)-1-benzyl-indazole, reference compound]
[1]; YC-1 alone (1 μM), after 20 min
  relaxation: 2.8±1.1%
[2]; YC-1 alone 1.2 μmol kg^−1 i.v., after 10 min
  maximum decrease in MAP: 5.5±1.0 mmHg
[2]; YC-1 alone 1.2 μmol kg^−1 i.v., after injection
  time to return of MAP to basal levels: 50 min

## NCC(=O)O.[CH+]=O.[CH+]=O.[CH+]=O.[Cl][Ru] [CORM-3, Tricarbonylchloro(glycinato)ruthenium(II)]
Deoxymyoglobin (Mb) [3]; added to a solution containing myoglobin (Mb), 1 mole CO per mole compound
  time in which CO is liberated to Mb: 1 to 2 min
Deoxymyoglobin (Mb) [3]; added to a solution containing myoglobin (Mb), within 1-2 min
  CO liberated per mole of compound: 1 mole of CO per mole of compound
Deoxymyoglobin (Mb) [3]; from recent works
  time of liberation of CO to Mb or in biological systems: approximately 5 min
[4]; 80 μM
  time after addition at which the stated relaxation was reached: 4 to 5 min
[4]; 80 μM, within 4-5 min
  relaxation: 75%

## [BH4-].[Na+] [NaBH4, Sodium borohydride, reference compound]
[4]; 80 μM
  vasorelaxation (in words): totally ineffective

## [BH3-]C(=O)[O-].[Na+].[Na+] [CORM-A1, Disodium boranocarbonate]
Deoxymyoglobin (Mb) [5]; 15.6 μM CORM-A1, room temperature
  calculated Ymax of MbCO formed: 16.7±1.2
Deoxymyoglobin (Mb) [5]; 31.1 μM CORM-A1, room temperature
  calculated Ymax of MbCO formed: 33.1±1.4
Deoxymyoglobin (Mb) [5]; 46.7 μM CORM-A1, room temperature
  calculated Ymax of MbCO formed: 48.2±2.5
Deoxymyoglobin (Mb) [5]; 60 μM, pH=7.4, 37° C., MbCO spectrum after 210 min incubation
  conversion of Mb to MbCO: gradual formation of MbCO over time
Deoxymyoglobin (Mb) [5]; aqueous solution, room temperature, reaction to completion
  CO liberated per mole of compound: one mole of CO per mole of compound
Deoxymyoglobin (Mb) [5]; physiological pH
  release of CO at physiological pH: 18.4 min
[1]; 1 μM CORM-A1, vessels pre-treated with YC-1
  relaxation: 35±9.8%
[1]; 10 μM CORM-A1, vessels pre-treated with YC-1
  relaxation: 51±3.3%
[1]; 20 μM after pre-treatment of vessels with YC-1 (1 μM)
  relaxation: 61±6.2%
[1]; 20 μM alone, after 20 min
  relaxation: 13±4.9%
[6]
  stability in water: relatively stable
[4]; 40 μM
  percentage of relaxation compared to control: 21.0±2.3%
[4]; 80 μM
  time after addition at which the stated relaxation was reached: 33 min
  vasorelaxation (in words): gradual and profound vasorelaxation
  percentage of relaxation compared to control: 40.2±3.4%
[4]; 80 μM, 33 min following addition
  maximal vasorelaxation: 96%
[4]; 160 μM
  percentage of relaxation compared to control: 74.9±1.8%
[2]; 50 μmoles/kg i.v. bolus, 60 min after injection
  decrease in MAP from initial baseline: 6.3±1.5 mmHg
[2]; CORM-A1 50 μmoles/kg i.v. in combination with YC-1 1.2 μmol kg^−1 given 10 min prior, after 10 min
  decrease in MAP: 16.1±5.6 mmHg
